In patent publication US8318419B2, “Antiviral screening method to identify inhibitors of phosphatidylinositol 4,5-bisphosphate [PI(4,5)P2] binding to the HIV gag matrix (MA) protein” (priority 2007, dated 2012):
Values joined by “and” are separate entries in the source; they are usually repeats but may differ in a detail not shown here. Equal entries are not always repeated. Where two headings read alike, the source gives them in different places.

Columns and labels:
HIV-1 myrMA [1] = target: T1, HIV-1 myrMA (Human immunodeficiency virus type 1 group M subtype B, UniProt P12493); type: binding; design: mediated by the matrix (MA) domain of Gag, a 132-residue polypeptide containing an N-terminal myristyl group; made in house; conditions: for Kd: fit to 1:1 binding isotherms, read-out: dissociation constant (Kd)
Protocol: (§1) HIV-1 myrMA and myr(−)MA proteins were prepared as described (19, 37). Phosphoinositides PI(4,5)P2, di-C4-PI(4,5)P2, di-C8-PI(4,5)P2, di-C4-PI, di-C4-PI(3)P, di-C4-PI(4)P, di-C4-PI(5)P, di-C4-PI(3,5)P2, di-C8-PI(3,4,5)P2, and di-C4-PI (Echelon, Salt Lake City, Utah) and di-C4-phosphatidylcholine (Avanti Polar Lipids) were obtained commercially and used without further purification. Samples for all NMR experiments were prepared in 50 mM sodium phosphate at pH 5.5 and 5 mM DTT.
(§2) NMR data [Bruker DRX (Billerica, Mass.); 800 MHz ^1H and DMX 600 MHz ^1H spectrometers equipped with cryoprobes] were obtained from a combination of 2D, 3D, and 4D NOESY data, for combinations of natural abundance; ^15N-, ^15N-, and ^13C-labeled protein samples (35° C.). Protein signals were assigned as described (19, 37). Phosphoinositide signals were assigned from 2D heteronuclear multiple-quantum coherence (HMQC), heteronuclear multiple bond correlation (HMBC), NOESY, total correlation spectroscopy (TOCSY), and COSY data (the ^1H and ^13C NMR signals of the 1′- and 2′-acyl chains were resolved in the 2D spectra), and intra- and intermolecular ^1H-^1H NOEs were assigned from 2D (^1H-^1H), 3D (^13C-, ^15N-, and ^13C-edited/^12C-double-half-filtered), and 4D ([…] and ^13C/^13C-edited) NOESY data (39, 40). Binding isotherms from ^1H-^15N NMR HSQC titration experiments were calculated with ORIGIN 7.0 software (Microcal Software, Northampton, Mass.).

HIV-1 myrMA [2] = target: T1, HIV-1 myrMA; conditions: for binding to myrMA (changes in NMR spectra upon titration): 1H-15N HSQC titration; for triggering of myristate exposure: NMR; for Kd: read-out: dissociation constant (Kd), fit to 1:1 binding isotherms, 35° C., pH 5.5
Protocol: as §1, §2

Row | Compound | binding to myrMA (changes in NMR spectra upon titration) (HIV-1 myrMA [2]) | triggering of myristate exposure (HIV-1 myrMA [2]; myrMA) | also measured
1 | CCCCCCCC(=O)OC[C@H](COP(=O)(O)O[C@@H]1[C@H](O)[C@H](O)[C@@H](OP(=O)(O)O)[C@H](OP(=O)(O)O)[C@H]1O)OC(=O)CCCCCCC [di-C8-PI(4,5)P2, di-octyl-PI(4,5)P2] | – | – | affinity for myr(−)MA relative to di-C4-PI(4,5)P2 (HIV-1 myrMA [1]): 3 fold and > 3 fold; Kd (HIV-1 myrMA [1]): 83 ± 4 µM
2 | PI(5)P | do not bind MA with significant affinity | – | –
3 | phosphatidylinositol (PI)4,5-bisphosphate [PI(4,5)P2] | binds directly | triggers myristate exposure | –
4 | PI(3,5)P2 | do not bind MA with significant affinity | do not bind MA with significant affinity or trigger myristate exposure | –
5 | CCCC(=O)OCC(COP(=O)(O)OC1C(O)C(O)C(O)C(OP(=O)(O)O)C1O)OC(=O)CCC (stereo not drawn) [di-C4-PI(5)P] | No detectable changes | – | –
6 | CCCC(=O)OC[C@H](COP(=O)([O-])OCC[N+](C)(C)C)OC(=O)CCC [di-C4-phosphatidylcholine] | does not bind | – | –
7 | CCCC(=O)OC[C@H](COP(=O)(O)OC1[C@H](O)[C@H](O)C(O)[C@H](O)[C@H]1O)OC(=O)CCC (stereo partly drawn) [di-C4-PI] | No detectable changes | – | –
8 | CCCC(=O)OCC(COP(=O)(O)OC1C(O)C(O)C(OP(=O)(O)O)C(O)C1O)OC(=O)CCC (stereo not drawn) [di-C4-PI(4)P] | No detectable changes | – | –
9 | CCCC(=O)OC[C@H](COP(=O)(O)O[C@@H]1[C@H](O)[C@H](O)[C@@H](OP(=O)(O)O)[C@H](OP(=O)(O)O)[C@H]1O)OC(=O)CCC [di-C4-PI(4,5)P2, di-butyryl-PI(4,5)P2] | – | causes extrusion of the myristyl group | chemical-shift changes ΔδHN of group 1 residues (HIV-1 myrMA [2]; myrMA, upon addition of the lipid): 0.1-0.8 ppm; Kd (HIV-1 myrMA [2]; myrMA): 150 ± 30 µM; Kd (HIV-1 myrMA [1]): 240 ± 60 µM
10 | PI(3)P | do not bind MA with significant affinity | do not bind MA with significant affinity or trigger myristate exposure | –
11 | CCCC(=O)OCC(COP(=O)(O)OC1C(O)C(OP(=O)(O)O)C(O)C(OP(=O)(O)O)C1O)OC(=O)CCC (stereo not drawn) [di-C4-PI(3,5)P2] | does not bind | does not bind myrMA or trigger myristate exposure | –
12 | PI(4)P | do not bind MA with significant affinity | do not bind MA with significant affinity or trigger myristate exposure | –
13 | CCCC(=O)OC[C@H](COP(=O)(O)O[C@@H]1[C@H](O)[C@H](OP(=O)(O)O)[C@@H](O)[C@H](O)[C@H]1O)OC(=O)CCC [di-C4-PI(3)P] | No detectable changes | – | –
14 | CCCC(=O)OC[C@H](COP(=O)(O)O[C@H]1[C@H](O)[C@@H](OP(=O)(O)O)[C@H](OP(=O)(O)O)[C@@H](OP(=O)(O)O)[C@H]1O)OC(=O)CCC [di-C4-PI(3,4,5)P3] | – | triggers myristate exposure | Kd (HIV-1 myrMA [2]; myrMA): 81 ± 18 µM
